Test results reported in ChEMBL document CHEMBL2073833, “Biliary excretion of glycyrrhizin in rats: kinetic basis for multiplicity in bile canalicular transport of organic anions” (Pharm Res, 1996).

Columns and labels:
Conditions in all cases: in vivo
[1] = biological target: T1, ATP-binding cassette sub-family C member 2 (Rattus norvegicus, UniProt Q63120); test: TP_TRANSPORTER: biliary excretion in SD rat; assay type: functional, organism-based, Sprague-Dawley, Bile
[2] = biological target: T1, ATP-binding cassette sub-family C member 2; test: TP_TRANSPORTER: biliary excretion in EHBR rat; assay type: functional, organism-based, Bile
[3] = biological target: T1, ATP-binding cassette sub-family C member 2; test: TP_TRANSPORTER: inhibition of GR biliary excretion (70.8->23.5 % of dose, DBSP: 3 uM/min/kg iv infusion, GR: 10 mg/kg iv) in EHBR rat; assay type: functional, organism-based, Bile; set-up: dose 10 mg/kg, route intravenous
[4] = biological target: T1, ATP-binding cassette sub-family C member 2; test: TP_TRANSPORTER: inhibition of GR biliary excretion (70.8->23.5 % of dose, DBSP: 3 uM/min/kg iv infusion, GR: 10 mg/kg iv) in SD rat; assay type: functional, organism-based, Sprague-Dawley, Bile; set-up: dose 10 mg/kg, route intravenous

T1 sequence (Q63120 whole entry): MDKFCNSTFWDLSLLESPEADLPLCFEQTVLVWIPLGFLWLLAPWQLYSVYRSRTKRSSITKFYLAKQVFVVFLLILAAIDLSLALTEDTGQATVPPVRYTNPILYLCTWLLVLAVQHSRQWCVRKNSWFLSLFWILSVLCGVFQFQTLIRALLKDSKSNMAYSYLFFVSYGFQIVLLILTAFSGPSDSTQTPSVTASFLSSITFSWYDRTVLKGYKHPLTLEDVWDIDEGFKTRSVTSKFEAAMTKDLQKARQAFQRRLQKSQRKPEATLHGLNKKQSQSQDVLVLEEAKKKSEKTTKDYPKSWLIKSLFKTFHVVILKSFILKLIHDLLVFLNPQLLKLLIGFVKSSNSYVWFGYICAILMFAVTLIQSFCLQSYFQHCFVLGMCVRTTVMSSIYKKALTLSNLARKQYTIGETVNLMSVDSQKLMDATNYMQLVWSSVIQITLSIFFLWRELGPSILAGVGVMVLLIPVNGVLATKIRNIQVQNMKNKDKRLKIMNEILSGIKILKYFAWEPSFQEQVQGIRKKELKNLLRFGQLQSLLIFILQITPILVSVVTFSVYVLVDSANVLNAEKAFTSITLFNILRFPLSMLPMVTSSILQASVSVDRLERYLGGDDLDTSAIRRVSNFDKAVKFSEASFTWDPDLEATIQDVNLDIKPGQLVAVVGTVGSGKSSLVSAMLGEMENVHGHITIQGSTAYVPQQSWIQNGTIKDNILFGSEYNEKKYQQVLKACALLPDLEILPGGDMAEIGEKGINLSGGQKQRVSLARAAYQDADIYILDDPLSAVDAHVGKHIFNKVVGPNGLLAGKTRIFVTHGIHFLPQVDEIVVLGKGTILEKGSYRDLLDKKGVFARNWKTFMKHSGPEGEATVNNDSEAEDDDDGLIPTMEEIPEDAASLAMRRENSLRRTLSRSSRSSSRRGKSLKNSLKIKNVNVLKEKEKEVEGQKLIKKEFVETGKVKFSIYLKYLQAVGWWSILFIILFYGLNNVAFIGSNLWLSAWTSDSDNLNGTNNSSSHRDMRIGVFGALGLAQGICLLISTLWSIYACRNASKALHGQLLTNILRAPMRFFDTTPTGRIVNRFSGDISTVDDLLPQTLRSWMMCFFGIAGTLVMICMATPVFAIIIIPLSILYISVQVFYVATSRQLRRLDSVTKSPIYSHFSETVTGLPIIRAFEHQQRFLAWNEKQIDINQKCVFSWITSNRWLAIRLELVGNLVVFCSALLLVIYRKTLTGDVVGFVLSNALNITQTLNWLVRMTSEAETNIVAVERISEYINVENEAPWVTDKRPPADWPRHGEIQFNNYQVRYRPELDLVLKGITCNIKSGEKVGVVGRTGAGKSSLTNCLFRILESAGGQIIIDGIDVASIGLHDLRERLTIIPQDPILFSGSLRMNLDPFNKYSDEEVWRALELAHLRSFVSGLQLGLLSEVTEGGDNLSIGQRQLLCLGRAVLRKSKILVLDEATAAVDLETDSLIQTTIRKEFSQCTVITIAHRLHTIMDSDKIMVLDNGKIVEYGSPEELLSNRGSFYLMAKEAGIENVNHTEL

Row | Activity [1] | Activity [2] | Activity [3] | Activity [4] | Compound
1 | substrate [+] | substrate [+] |  |  | CC1(C)[C@@H](O[C@H]2O[C@H](C(=O)O)[C@@H](O)[C@H](O)[C@H]2O[C@@H]2O[C@H](C(=O)O)[C@@H](O)[C@H](O)[C@H]2O)CC[C@]2(C)[C@H]3C(=O)C=C4[C@@H]5C[C@@](C)(C(=O)O)CC[C@]5(C)CC[C@@]4(C)[C@]3(C)CC[C@@H]12 [GLYCYRRHIZIN]
2 |  |  | inhibitor [+] | inhibitor [+] | O=C1OC(c2ccc(OS(=O)(=O)O)cc2)(c2ccc(OS(=O)(=O)O)cc2)c2c(Br)ccc(Br)c21 [DIBROMOSULFOPHTHALEIN]
